Assay results from patent US20170226072A1, “1,4-Disubstituted Piperidines, 1,4-Disubstituted Piperazines, 1,4-Disubstituted Diazepines, and 1,3-Disubstituted Pyrrolidine Compounds” (University of Kentucky Research Foundation, priority 2013, published 2017).
Where “and” joins values, the source holds several entries; their conditions need not be identical. Equal values may be shown once.

Key:
[1] = target: T1, VMAT2 (Rattus norvegicus, UniProt Q01827); test: [3H]Dihydrotetrabenazine ([3H]DTBZ) binding assay, vesicular preparation; conditions: rat brain synaptic vesicles, 3 nM [3H]DTBZ; read-out: Inhibition of [3H]DTBZ binding (Ki) VMAT2
T1 construct: conducted using isolated synaptic vesicle preparations; from tissue; host or cells: rat striatum, isolated synaptic vesicles
T1 sequence (Q01827 whole entry): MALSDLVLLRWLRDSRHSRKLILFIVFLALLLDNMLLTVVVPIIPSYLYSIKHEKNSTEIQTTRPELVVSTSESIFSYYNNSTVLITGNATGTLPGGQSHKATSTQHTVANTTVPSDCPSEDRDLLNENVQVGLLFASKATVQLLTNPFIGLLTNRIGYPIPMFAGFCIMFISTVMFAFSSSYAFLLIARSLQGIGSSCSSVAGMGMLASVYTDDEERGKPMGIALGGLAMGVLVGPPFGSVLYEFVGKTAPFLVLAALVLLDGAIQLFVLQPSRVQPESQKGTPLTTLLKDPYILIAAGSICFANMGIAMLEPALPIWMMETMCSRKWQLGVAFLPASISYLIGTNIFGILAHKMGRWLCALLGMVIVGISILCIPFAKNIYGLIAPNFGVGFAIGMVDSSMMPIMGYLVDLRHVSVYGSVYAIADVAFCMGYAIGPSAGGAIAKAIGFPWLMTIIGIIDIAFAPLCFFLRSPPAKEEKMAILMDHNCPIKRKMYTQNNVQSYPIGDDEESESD

[2] = target: T1, VMAT2; test: [3H]Dopamine ([3H]DA) uptake assay, vesicular preparation; type: biochemical
[3] = target: T2, hERG channel (Homo sapiens, UniProt Q12809); test: [3H]Dofetilide binding assay, HEK-293 cell membrane preparation; conditions: HEK-293 cell membranes expressing hERG, 5 nM [3H]dofetilide; read-out: hERG [3H]Dofetilide Binding Inhibition Mean ± SEM (IC50)
T2 construct: expressed in transfected cells
T2 sequence (Q12809 whole entry): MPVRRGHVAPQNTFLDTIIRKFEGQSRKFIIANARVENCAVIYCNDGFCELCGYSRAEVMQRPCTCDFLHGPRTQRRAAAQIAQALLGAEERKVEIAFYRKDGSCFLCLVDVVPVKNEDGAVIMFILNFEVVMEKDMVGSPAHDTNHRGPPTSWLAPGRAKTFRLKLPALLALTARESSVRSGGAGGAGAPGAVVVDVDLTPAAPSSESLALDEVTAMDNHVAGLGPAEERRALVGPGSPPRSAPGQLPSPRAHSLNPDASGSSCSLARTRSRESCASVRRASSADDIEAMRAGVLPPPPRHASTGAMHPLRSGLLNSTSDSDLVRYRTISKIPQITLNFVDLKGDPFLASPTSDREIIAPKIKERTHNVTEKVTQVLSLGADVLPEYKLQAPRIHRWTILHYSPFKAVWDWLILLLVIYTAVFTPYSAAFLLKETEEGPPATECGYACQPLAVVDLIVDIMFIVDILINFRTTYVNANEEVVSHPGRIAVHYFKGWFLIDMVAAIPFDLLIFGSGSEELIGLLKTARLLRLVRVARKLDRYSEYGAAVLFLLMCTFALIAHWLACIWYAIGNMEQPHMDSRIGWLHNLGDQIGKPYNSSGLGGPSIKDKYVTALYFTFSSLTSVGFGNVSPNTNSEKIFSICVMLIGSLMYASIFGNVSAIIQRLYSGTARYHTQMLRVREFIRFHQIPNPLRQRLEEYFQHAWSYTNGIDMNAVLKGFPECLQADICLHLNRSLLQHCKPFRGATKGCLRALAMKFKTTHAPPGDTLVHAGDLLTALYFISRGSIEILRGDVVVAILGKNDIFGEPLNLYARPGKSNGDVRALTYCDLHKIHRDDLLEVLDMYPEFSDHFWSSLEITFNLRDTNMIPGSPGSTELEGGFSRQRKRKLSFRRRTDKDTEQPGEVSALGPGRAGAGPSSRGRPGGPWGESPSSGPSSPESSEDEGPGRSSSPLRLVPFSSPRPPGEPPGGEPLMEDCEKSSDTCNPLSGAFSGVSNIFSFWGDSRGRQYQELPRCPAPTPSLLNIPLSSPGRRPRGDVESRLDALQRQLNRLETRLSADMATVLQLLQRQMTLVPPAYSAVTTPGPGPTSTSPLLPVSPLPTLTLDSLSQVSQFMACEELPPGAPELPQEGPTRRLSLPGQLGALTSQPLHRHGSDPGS
Procedure: [^3H]Dofetilide Binding Assay, HEK-293 Cell Membrane Preparation
[^3H]Dofetilide binding assays were conducted using commercially available HEK-293 cell membranes which stably express the hERG channel. Membranes were suspended in assay buffer (50 mM Tris, 10 mM KCl, 1 mM MgCl2, pH 7.4) prior to the experiment. Assays were performed in duplicate in a total volume of 250 μL. Aliquots of the HEK-293 cell membrane suspension which contained 5 μg membrane protein were added to tubes containing assay buffer, 5 nM [^3H]dofetilide and a range of concentrations of analog (10 nM-100 μM). Nonspecific binding was determined in the presence of amitriptyline (1 mM). Samples were incubated for 1 hr. at 24° C., followed by rapid filtration. Radioactivity retained by the filters was determined by liquid scintillation spectrometry as described above for the [^3H]DA uptake assay. The affinity for the [^3H]dofetilide binding site on the hERG channel expressed in the HEK-293 cellular membrane was determined from the analog concentration response curves.

[4] = rat striatal synaptic vesicles, 0.1 μM [3H]DA, read-out: [3H]DA Uptake (Ki) VMAT2

Ki [1] | Ki [2, 4] [µM] | Compound | IC50 [3] [µM] | Ki ([2]; synaptic vesicle preparations, summary of Table 1, read-out: inhibition of [3H]DA uptake, Ki) [µM]
0.53 ± 0.11 µM | 0.053 ± 0.0055 | Fc1ccc(CCC2CCN(CCc3ccccc3)CC2)c(F)c1 [Compound 30] | 0.552 ± 0.0991 | 
0.35 ± 0.048 µM | 0.041 ± 0.012 | COc1ccccc1CCN1CCC(CCc2ccc(F)cc2F)CC1 [Compound 31] | 0.317 ± 0.0248 | 
0.27 ± 0.015 µM | 0.029 ± 0.0055 | COc1cccc(CCN2CCC(CCc3ccc(F)cc3F)CC2)c1 [Compound 32] | 0.327 ± 0.0353 | 
1.3 ± 0.17 µM | 0.07 ± 0.0051 | COc1ccc(CCN2CCC(CCc3ccc(F)cc3F)CC2)cc1 [Compound 33] | 1.07 ± 0.152 | 
0.24 ± 0.038 µM | 0.11 ± 0.019 | Fc1ccc(CCC2CCN(CCc3ccccc3Cl)CC2)c(F)c1 [Compound 34] |  | 
1.45 ± 0.24 µM | 0.043 ± 0.014 | Fc1ccc(CCN2CCC(CCc3ccc(F)cc3F)CC2)cc1 [Compound 35] | 0.201 ± 0.0327 | 
0.29 ± 0.064 µM | 0.12 ± 0.0085 | COc1ccc(CCC2CCN(CCc3ccccc3)CC2)c(F)c1 [Compound 36] |  | 
0.33 ± 0.018 µM | 0.076 ± 0.01 | COc1ccc(CCC2CCN(CCc3ccccc3OC)CC2)c(F)c1 [Compound 37] | 2.87 ± 0.76 | 
1.61 ± 0.078 µM | 0.044 ± 0.0033 | COc1ccc(CCN2CCC(CCc3ccc(OC)cc3F)CC2)cc1 [Compound 39] | 0.299 ± 0.0459 | 
0.23 ± 0.015 µM | 0.067 ± 0.021 | COc1ccc(CCC2CCN(CCc3ccccc3Cl)CC2)c(F)c1 [Compound 40] | 1.41 ± 0.166 | 
1.1 ± 0.087 µM | 0.051 ± 0.0035 | Fc1cc(F)cc(CCC2CCN(CCc3ccccc3)CC2)c1 [Compound 42] | 0.258 | 
0.41 ± 0.038 µM | 0.034 ± 0.0039 | COc1ccccc1CCN1CCC(CCc2cc(F)cc(F)c2)CC1 [Compound 43] | 0.427 ± 0.134 | 
2.03 ± 0.13 µM | 0.12 ± 0.028 | COc1ccc(CCN2CCC(CCc3cc(F)cc(F)c3)CC2)cc1 [Compound 45] |  | 
0.66 ± 0.058 µM | 0.18 ± 0.068 | Fc1cc(F)cc(CCC2CCN(CCc3ccccc3Cl)CC2)c1 [Compound 46] |  | 
1.43 ± 0.28 µM | 0.068 ± 0.016 | Fc1ccc(CCN2CCC(CCc3cc(F)cc(F)c3)CC2)cc1 [Compound 47] | 0.44 ± 0.0412 | 
21.7 ± 2.08 µM | 0.19 ± 0.063 | c1ccc(CCC2CCN(Cc3ccccc3)CC2)cc1 [Compound 48] |  | 
9.36 ± 1.32 µM | 0.07 ± 0.0075 | COc1ccccc1CN1CCC(CCc2ccccc2)CC1 [Compound 49] | 0.568 ± 0.122 | 
12.7 ± 4.28 µM | 0.19 ± 0.02 | COc1cccc(CN2CCC(CCc3ccccc3)CC2)c1 [Compound 50] |  | 
6.23 ± 0.56 µM | 0.25 ± 0.027 | COc1ccc(CN2CCC(CCc3ccccc3)CC2)cc1 [Compound 51] |  | 
44.5 ± 17.8 µM | 0.27 ± 0.042 | Clc1ccccc1CN1CCC(CCc2ccccc2)CC1 [Compound 52] |  | 
10.1 ± 0.58 µM | 0.21 ± 0.012 | Fc1ccc(CN2CCC(CCc3ccccc3)CC2)cc1 [Compound 53] |  | 
3.17 ± 0.55 µM | 0.19 ± 0.017 | c1ccc(CCN2CCCN(CCc3ccccc3)CC2)cc1 [Compound 65] |  | 
2.02 ± 0.11 µM | 0.19 ± 0.026 | COc1ccccc1CCN1CCCN(CCc2ccccc2OC)CC1 [Compound 66] |  | 
2.24 ± 0.53 µM | 0.1 ± 0.01 | COc1cccc(CCN2CCCN(CCc3cccc(OC)c3)CC2)c1 [Compound 67] | 1.12 ± 0.0857 | 
2.88 ± 0.25 µM | 0.25 ± 0.015 | COc1ccc(CCN2CCCN(CCc3ccc(OC)cc3)CC2)cc1 [Compound 68] |  | 
0.93 ± 0.021 µM | 0.17 ± 0.025 | Clc1ccccc1CCN1CCCN(CCc2ccccc2Cl)CC1 [Compound 69] |  | 
5.05 ± 0.77 µM | 0.085 ± 0.0052 | Fc1ccc(CCN2CCCN(CCc3ccc(F)cc3)CC2)cc1 [Compound 70] | 0.057 ± 0.0027 | 

Compound | Ki [1] | Ki [2, 4] [µM] | IC50 [3] [µM] | Ki ([2]; synaptic vesicle preparations, summary of Table 1, read-out: inhibition of [3H]DA uptake, Ki) [µM]
COc1ccccc1CCN1CCC(CCc2ccccc2)CC1 [Compound 1, 1-(2-methoxyphenethyl)-4-phenethylpiperidine] | 0.255 ± 0.026 µM | 0.03 ± 0.002 | 0.534 ± 0.142 | 
COc1ccc(CCN2CCC(CCc3ccccc3)CC2)cc1OC [Compound 3] | 2.8 ± 0.11 µM | 0.056 ± 0.009 | 0.402 ± 0.0727 | 
COc1ccc(CCN2CCC(CCc3ccccc3)CC2)cc1 [Compound 4] | 1.62 ± 0.19 µM | 0.046 ± 0.0037 | 0.622 ± 0.215 | 
COc1ccccc1CCN1CCC(Cc2ccccc2)CC1 [Compound 5] | 2.76 ± 0.31 µM | 0.13 ± 0.015 |  | 
COc1cccc(CCN2CCC(Cc3ccccc3)CC2)c1 [Compound 6] | 1.53 ± 0.1 µM | 0.077 ± 0.0098 | 0.442 ± 0.221 | 
COc1ccc(CCN2CCC(Cc3ccccc3)CC2)cc1OC [Compound 7] | 2.99 ± 0.17 µM | 0.24 ± 0.034 |  | 
COc1ccc(CCN2CCC(Cc3ccccc3)CC2)cc1 [Compound 8] | 1.94 ± 0.43 µM | 0.18 ± 0.011 |  | 
Clc1ccccc1CCN1CCC(CCc2ccccc2)CC1 [Compound 10] | 0.38 ± 0.0058 µM | 0.047 ± 0.0063 | 0.666 ± 0.0265 | 
Fc1ccc(CCN2CCC(CCc3ccccc3)CC2)cc1 [Compound 11] | 1.82 ± 0.079 µM | 0.032 ± 0.0038 | 0.353 ± 0.036 | 
COc1cccc(CCC2CCN(CCc3ccccc3)CC2)c1 [Compound 14] | 0.32 ± 0.015 µM | 0.056 ± 0.0086 | 0.631 ± 0.0888 | 
COc1cccc(CCC2CCN(CCc3ccccc3OC)CC2)c1 [Compound 15] | 0.32 ± 0.055 µM | 0.04 ± 0.0075 | 0.79 ± 0.0641 | 
COc1cccc(CCC2CCN(CCc3cccc(OC)c3)CC2)c1 [Compound 16] | 0.23 ± 0.019 µM | 0.085 ± 0.01 | 0.564 ± 0.131 | 
COc1ccc(CCN2CCC(CCc3cccc(OC)c3)CC2)cc1 [Compound 17] | 0.45 ± 0.13 µM | 0.13 ± 0.023 | 0.6 ± 0.0878 | 
COc1cccc(CCC2CCN(CCc3ccccc3Cl)CC2)c1 [Compound 18] | 0.46 ± 0.098 µM | 0.42 ± 0.049 |  | 
COc1cccc(CCC2CCN(CCc3ccc(F)cc3)CC2)c1 [Compound 19] | 0.96 ± 0.047 µM | 0.069 ± 0.004 | 0.409 ± 0.0429 | 
COc1ccc(CCC2CCN(CCc3ccccc3)CC2)cc1 [Compound 20] | 0.51 ± 0.087 µM | 0.11 ± 0.007 |  | 
COc1ccc(CCC2CCN(CCc3ccccc3OC)CC2)cc1 [Compound 21] | 0.42 ± 0.019 µM | 0.083 ± 0.009 | 0.323 ± 0.0964 | 
COc1ccc(CCC2CCN(CCc3cccc(OC)c3)CC2)cc1 [Compound 22] | 0.23 ± 0.047 µM | 0.075 ± 0.004 | 0.479 ± 0.228 | 
COc1ccc(CCC2CCN(CCc3ccc(OC)cc3)CC2)cc1 [Compound 23] | 2.47 ± 0.27 µM | 0.16 ± 0.012 |  | 
COc1ccc(CCC2CCN(CCc3ccc(F)cc3)CC2)cc1 [Compound 25] | 0.47 ± 0.067 µM | 0.06 ± 0.005 | 1.42 ± 0.384 | 
COc1cccc(CCN2CCC(CCc3ccccc3OC)CC2)c1 [Compound 26, 1-(3-methoxyphenethyl)-4-(2-methoxyphenethyl)piperidine] | 0.15 to 0.19 µM and 0.15 µM | 0.013 ± 0.0015 | 0.607 ± 0.0255 | 0.009 to 0.02
COc1ccc(CCN2CCC(CCc3ccccc3OC)CC2)cc1 [Compound 27] | 0.5 ± 0.1 µM | 0.043 ± 0.0028 | 0.479 ± 0.109 | 
COc1ccc(CCN2CCN(CCc3ccc(OC)cc3)CC2)cc1 [Compound 57] | 6.63 ± 0.84 µM | 0.41 ± 0.005 |  | 
